The assay concerns TFEB. The assay is described as follows: TFEB nuclear translocation assay, HeLa wt cells. Format: cell-based. The following applies: Homo sapiens, HeLa, 2 h, 2 hrs compound treatment, Table 1 does not say HeLa wt or TRPML1 KO. The method, boiled down: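 Cells are plated overnight, exposed to compounds for 2 hrs at 37° C, fixed with 4% PFA, blocked, and stained overnight at 4° C with rabbit anti-TFEB. After Alexa 488 secondary and Hoechst, nuclei and a perinuclear ring are segmented to give a nuclear:ring intensity ratio and AC50.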

This passage reports AC50 results from patent publication US20230104936A1, “TRPML MODULATORS” (Casma Therapeutics, Inc., priority 2019, published 2023).

For orientation: AC50 means the concentration at which the activity in the assay is half-maximal. In the case of `C[C@H](c1cccc(F)c1N1CCC(C2(N3CCOCC3)CC2)CC1)S(=O)(=O)c1ccc(S(=N)(=O)N(C)C)cc1` (single isomer, unassigned) [Compound A-892], the concentration at half-maximal activity (AC50) is 8.01 to 9.99 µM. For the compound `Cc1noc(NS(=O)(=O)c2ccc(S(=O)(=O)N(C)C)cc2)c1C1CCN(c2ccc(Cl)cc2F)CC1` [Compound A-105, N4-{4-[1-(4-chloro-2-fluorophenyl)piperidin-4-yl]-3-methyl-1,2-oxazol-5-yl}-N1,N1-dimethylbenzene-1,4-disulfonamide], the half-maximal activity concentration (AC50) was no less than 10 µM. `O=C1COCCN1c1ccc(Cl)cc1NS(=O)(=O)c1ccc2c(c1)CCC2` [Compound A-326, N-[5-chloro-2-(3-oxomorpholin-4-yl)phenyl]-2,3-dihydro-1H-indene-5-sulfonamide] came in with an AC50 of no less than 10 µM. In turn, `Cc1ccc(S(=O)(=O)Cc2ccccc2N2CCC(c3ccc(Cl)cc3F)CC2)cc1` [Compound A-138, 4-(4-chloro-2-fluorophenyl)-1-(2-(tosylmethyl)phenyl)piperidine] yielded a half-maximal activity concentration (AC50) of no more than 2 µM.

Compound `CN(C)S(=O)(=O)c1ccc(S(=O)(=O)Nc2ccccc2N2CCCC3(CCCO3)C2)cc1` (centres unmarked) [Compound A-497, N1,N1-dimethyl-N4-(2-{1-oxa-7-azaspiro[4.5]decan-7-yl}phenyl)benzene-1,4-disulfonamide] displayed an AC50 of no more than 2 µM.

Regarding `COCC1(C)CCN(c2ccccc2NS(=O)(=O)Cc2ccc(OC)cc2)CC1` [Compound A-582, N-{2-[4-(methoxymethyl)-4-methylpiperidin-1-yl]phenyl}-1-(4-methoxyphenyl)methanesulfonamide], the half-maximal activity concentration (AC50) lay within 2.01 to 8 µM. As for `CN(C)S(=O)(=O)c1ccc(S(=O)(=O)Cc2cccc(Cl)c2N2CCOCC2)cc1` [Compound A-327, 4-{[3-chloro-2-(morpholin-4-yl)phenyl]methanesulfonyl}-N,N-dimethylbenzene-1-sulfonamide], the figure is no less than 10 µM; as for `O=S(=O)(Nc1cc(Cl)ccc1N1CCN(c2ccc(Cl)cc2F)CC1)c1ccc2c(c1)CCC2` [Compound A-291, N-{5-chloro-2-[4-(4-chloro-2-fluorophenyl)piperazin-1-yl]phenyl}-2,3-dihydro-1H-indene-5-sulfonamide], no more than 2 µM. The compound `CN1CC2(CCN(c3ccccc3NS(=O)(=O)c3ccc(SC(C)(C)C)cc3)CC2)c2ccc(F)cc21` [Compound A-517, 4-(tert-butylsulfanyl)-N-(2-{6-fluoro-1-methyl-1,2-dihydrospiro[indole-3,4′-piperidin]-1′-yl}phenyl)benzene-1-sulfonamide] yielded an AC50 of 2.01 to 8 µM. The compound `CN(C)S(=O)(=O)c1ccc(S(=O)(=O)Nc2ccccc2N2CCC(C)(C(=O)NC(C)(C)C)CC2)cc1` [Compound A-361, N-tert-butyl-1-{2-[4-(dimethylsulfamoyl)benzenesulfonamido]phenyl}-4-methylpiperidine-4-carboxamide] came in with an AC50 of no more than 2 µM.

`CN(C)S(=O)(=O)c1ccc(S(=O)(=O)Nc2nn(C)cc2C2CCN(c3ccccc3F)CC2)cc1` [Compound A-40, N1-(4-(1-(2-fluorophenyl)piperidin-4-yl)-1-methyl-1H-pyrazol-3-yl)-N4,N4-dimethylbenzene-1,4-disulfonamide] showed a concentration at half-maximal activity (AC50) of 2.01 to 8 µM. For the compound `CN(C)S(=O)(=O)c1ccc(S(=O)(=O)N(C)c2ccccc2N2CCC(c3ccc(Cl)cc3F)CC2)cc1` [Compound A-104, N1-{2-[4-(4-chloro-2-fluorophenyl)piperidin-1-yl]phenyl}-N1,N4,N4-trimethylbenzene-1,4-disulfonamide], the AC50 was no more than 2 µM. As for `CN(C)S(=O)(=O)c1ccc(S(=O)(=O)Nc2ccccc2N2CCN(C(=O)C34CCC(CC3)C4)CC2)cc1` [Compound A-460, N4-[2-(4-{bicyclo[2.2.1]heptane-1-carbonyl}piperazin-1-yl)phenyl]-N1,N1-dimethylbenzene-1,4-disulfonamide], the AC50 is no more than 2 µM. As for `C#Cc1ccc(NS(=O)(=O)c2ccc(S(=O)(=O)N(C)C)cc2)c(N2CCCCC2)c1` [Compound A-812, N4-[4-ethynyl-2-(piperidin-1-yl)phenyl]-N1,N1-dimethylbenzene-1,4-disulfonamide], the figure is no more than 2 µM.
